Tested on: IND3 strain of Nilaparvata lugens (Neonicotinoid resistant)
Assay: Example B2b: Nilaparvata lugens larvicide, feeding/contact activity, preventive (rice seedlings), resistant strain
Type: in vivo
Settings: Lowest concentration giving greater than 80% mortality of resistant (IND3) hoppers / same for susceptible hoppers; Nilaparvata lugens N3 nymphs on rice seedlings, 6 and 12 days after treatment
Text: (§1) The level of resistance and therefore the impact on the performance of the insecticide can be measured by the use of a ‘Resistance Factor’. The resistance factor can be calculated by dividing the concentration of an insecticide that provides a set level of mortality (i.e. 80%) for the ‘resistant’ strain with the concentration of the same insecticide that provides the same level of mortality for the ‘susceptible’ insect of the same species and life-stage. Although there are no set rules, a low value (1-10) indicates no cross-resistance and only natural levels of variation and a high value (50+) provides strong evidence of cross-resistance.
b) Neonicotinoid Resistant Strain of the Brown Planthopper (Nilaparvata lugens)
Nilaparvata lugens strains utilised: • Standard screening strain of Nilaparvata lugens (Neonicotinoid susceptible) • IND3 strain of Nilaparvata lugens (Neonicotinoid resistant) Bioassay Method:
Nilaparvata lugens: larvicide, feeding/contact activity, preventive
Rice seedlings are treated with the diluted test solutions in a turn table spray chamber. After drying, they are infested with 20 N3 nymphs. 6 and 12 days after the treatment samples are checked for mortality, growth regulation, and effects on the F1 generation.

SMILES | Resistance Factor (RF80)
CCOC(=O)OC1=C(c2c(C)cc(Cl)cc2C)C(=O)N(C)C12CCN(OC)CC2 | 4
CON1CCC2(CC1)C(=O)C(c1c(C)cc(C)cc1C)C(=O)N2C (stereo not shown) | 1
CCOC(=O)OC1=C(c2c(C)cc(C)cc2C)C(=O)N(OC2CCCO2)C12CCN(OC)CC2 (stereo not shown) | 1
CCOC(=O)OC1=C(c2c(C)cc(C)cc2C)C(=O)N(OCC)C12CCN(OC)CC2 [drawing 473] | <1
CN1COCN(Cc2cnc(Cl)s2)/C1=N\[N+](=O)[O-] [thiamethoxam, reference compound] | >64

Same assay, conditions: neonicotinoid resistant IND3 versus susceptible Nilaparvata lugens

SMILES | Resistance factor (RF)
CN1COCN(Cc2cnc(Cl)s2)/C1=N\[N+](=O)[O-] [thiamethoxam, reference compound] | high

Tested on: ALM07 strain (Neonicotinoid and pyrethroid resistant) of the Tobacco Whitefly (Bemisia tabaci)
Assay: Example B2c: Bemisia tabaci residual activity, preventive egg lay (cotton seedlings), resistant strain
Type: in vivo
Settings: Concentration giving 50% control of resistant (ALM07) whitefly egg lay / same for susceptible whitefly; Bemisia tabaci on cotton seedlings, 3 days after exposure
Text: as §1
c) Neonicotinoid and Pyrethroid Resistant Strain of the Tobacco Whitefly (Bemisia tabaci)
Bemisia tabaci strains utilised: • Standard screening strain of Bemisia tabaci (Neonicotinoid susceptible) • ALM07 strain of […] (Neonicotinoid and pyrethroid resistant) and originally provided by Rothamsted Research, UK. (>250 RF in residual mortality bioassay of adult whitefly with thiamethoxam). Bioassay Method: […]
Cotton seedlings, with all but a single leaf removed are treated with the diluted test solutions in a turn table spray chamber. […] 3 days after exposure, the total number of adult whitefly and the total number of whitefly eggs laid on the leaf are counted. Percentage control of egg lay is calculated and corrected for control mortality.

SMILES | Resistance Factor (RF50)
CCOC(=O)OC1=C(c2c(C)cc(C)cc2C)C(=O)N(C)C12CCN(OC)CC2 [drawing 476] | 4

Tested on: not given
Assay: not given
Settings: not given

SMILES | melting point
CCOC(=O)OC1=C(c2cc(C)ccc2C)C(=O)N(C)C12CCN(OC)CC2 [P1.1] | 96 to 110 °C
CCOC(=O)OC1=C(c2c(C)cc(C)cc2C)C(=O)N(CC)C12CCN(OC)CC2 [P1.8] | 101 to 103 °C
CCOC(=O)OC1=C(c2cc(C)c(C)cc2Br)C(=O)N(C)C12CCN(OC)CC2 [P1.20] | 158 to 159 °C
CCOC(=O)OC1=C(c2cc(C)c(C)cc2Cl)C(=O)N(C)C12CCN(OC)CC2 [P1.22] | 149 to 150 °C
COCON1C(=O)C(c2cc(C)ccc2C)=C(OC(=O)CC(C)(C)C)C12CCN(OC)CC2 [P1ii.5] | 93 to 95 °C
COCON1C(=O)C(c2cc(C)ccc2C)=C(OC)C12CCN(OC)CC2 [P1ii.31] | 91 to 93 °C
CCOC(=O)OC1=C(c2c(Cl)ccc(C)c2F)C(=O)N(OC2CCCC2)C12CCN(OC)CC2 [P1ii.43] | 135 to 137 °C
CCOC(=O)OC1=C(c2c(F)ccc(C)c2Cl)C(=O)N(OCOC)C12CCN(OC)CC2 [P1ii.61] | 116 to 119 °C
CCOC(=O)OC1=C(c2c(C)cc(Cl)cc2C)C(=O)N(OC)C12CCN(OC)CC2 [P1ii.114] | 122 to 125 °C
CON1CCC2(CC1)C(O)=C(c1cc(C)ccc1C)C(=O)N2C [P2.1] | 121 to 123 °C
CON1CCC2(CC1)C(O)=C(c1c(C)cc(C)cc1C)C(=O)N2CC1CC1 [P2.8, 1-Cyclopropylmethyl-4-hydroxy-8-methoxy-3-(2,4,6-trimethyl-phenyl)-1,8-diaza-spiro[4.5]dec-3-en-2-one] | 223 to 225 °C
CCN1C(=O)C(c2c(C)cc(C)cc2C)=C(O)C12CCN(OC)CC2 [P2.11] | 218 to 221 °C
CON1CCC2(CC1)C(O)=C(c1cc(C)c(C)cc1Br)C(=O)N2C [P2.23] | 191 to 193 °C

The next lines start with the values.

melting point | SMILES
183 to 186 °C | CON1CCC2(CC1)C(O)=C(c1cc(C)c(C)cc1C)C(=O)N2C [P2.25]
191 to 192 °C | CON1CCC2(CC1)C(O)=C(c1cc(C)c(C)cc1Cl)C(=O)N2C [P2.26, 3-(2-Chloro-4,5-dimethyl-phenyl)-4-hydroxy-8-methoxy-1-methyl-1,8-diaza-spiro[4.5]dec-3-en-2-one]
182 to 183 °C | CON1CCC2(CC1)C(O)=C(c1cc(Br)c(C)cc1C)C(=O)N2C [P2.28]
128 °C (dec.) | COCON1C(=O)C(c2c(C)cc(-c3ccc(Cl)cc3)cc2C)=C(O)C12CCN(OC)CC2 [P2ii.15, 3-(4′-Chloro-3,5-dimethyl-biphenyl-4-yl)-4-hydroxy-8-methoxy-1-methoxymethoxy-1,8-diaza-spiro[4.5]dec-3-en-2-one]
135 to 137 °C | CON1CCC2(CC1)C(O)=C(c1c(C)cc(C)cc1C)C(=O)N2OCCOC1CCCCO1 (stereo not shown) [P2ii.22]
155 to 158 °C | COCON1C(=O)C(c2c(F)ccc(C)c2Cl)=C(O)C12CCN(OC)CC2 [P2ii.60]
63 to 64 °C | COCCON1C(=O)C(c2cc(Br)c(C)cc2C)=C(O)C12CCN(OC)CC2 [P2ii.73]
86 to 87 °C | CON1CCC2(CC1)C(O)=C(c1cc(Br)c(C)cc1C)C(=O)N2OC [P2ii.75]
71 to 74 °C | COCCON1C(=O)C(c2cc(Br)c(F)cc2C)=C(O)C12CCN(OC)CC2 [P2ii.87]
64 to 67 °C | COCON1C(=O)C(c2cc(Br)c(F)cc2C)=C(O)C12CCN(OC)CC2 [P2ii.89]
169 to 172 °C | CON1CCC2(CC1)C(O)=C(c1c(C)cc(C)cc1C)C(=O)N2OCC1CCCCC1 [P2ii.96]
161 to 164 °C | COCCON1C(=O)C(c2c(C)cc(Cl)cc2C)=C(O)C12CCN(OC)CC2 [P2ii.101]
88 to 92 °C | CON1CCC2(CC1)C(O)=C(c1c(C)cc(Cl)cc1C)C(=O)N2OC [P2ii.102]
176 to 178 °C | COCON1C(=O)C(c2c(C)cc(Cl)cc2C)=C(O)C12CCN(OC)CC2 [P2ii.104]
137 to 139 °C | CON1CCC2(CC1)C(O)=C(c1c(C)cc(Cl)cc1C)C(=O)N2OC1CCCO1 (stereo not shown) [P2ii.105]

Tested on: Myzus Persicae (Green Peach Aphid)
Assay: Example B1: Myzus persicae mixed population, feeding/residual contact activity, preventive (sunflower leaf discs)
Type: in vivo
Settings: foliar, 144 h, A: neonicotinoid insecticides susceptible Myzus persicae (mixed age population), 6 DAT, read-out: Mortality (A)
Protocol: Myzus Persicae (Green Peach Aphid): Mixed Population, Feeding/Residual Contact Activity, Preventive
Sunflower leaf discs are placed on agar in a 24-well microtiter plate and sprayed with test solutions. After drying, the leaf discs are infested with an aphid population of mixed ages. After an incubation period of 6 DAT, samples are checked for mortality.

SMILES | mortality at 200 ppm [%]
CCOC(=O)OC1=C(c2c(C)cc(C)cc2C)C(=O)N(C)C12CCN(OC)CC2 [P1.2, Carbonic acid ethyl ester 8-methoxy-1-methyl-2-oxo-3-(2,4,6-trimethyl-phenyl)-1,8-diaza-spiro[4.5]dec-3-en-4-yl ester] | 95

Same assay, conditions: foliar, 144 h, B: neonicotinoid insecticides resistant Myzus persicae (mixed age population), 6 DAT, read-out: Mortality (B)

SMILES | mortality at 200 ppm [%]
CCOC(=O)OC1=C(c2c(C)cc(C)cc2C)C(=O)N(C)C12CCN(OC)CC2 [P1.2, Carbonic acid ethyl ester 8-methoxy-1-methyl-2-oxo-3-(2,4,6-trimethyl-phenyl)-1,8-diaza-spiro[4.5]dec-3-en-4-yl ester] | 90

Tested on: FRC-P strain of Myzus persicae (Neonicotinoid resistant)
Assay: Example B2a: Myzus persicae mixed population, contact activity, curative on pea seedlings, resistant strain
Type: in vivo
Settings: Lowest concentration giving greater than 80% mortality of resistant (FRC-P) aphids / same for susceptible aphids; Myzus persicae on pea seedlings, spray, 6 days after treatment
Text: as §1
a) Neonicotinoid and Pyrethroid Resistant Strain of the Green Peach Aphid (Myzus persicae)
Myzus persicae strains utilised: • Standard screening strain of Myzus persicae (Neonicotinoid susceptible) • FRC-P strain of Myzus persicae (Neonicotinoid resistant) Bioassay Method:
Myzus persicae: mixed population, contact activity, curative on pea seedlings
Pea seedlings, infested with an aphid population of mixed ages, are treated with the test solutions in a spray chamber. 6 days after treatment, samples are checked for mortality.

SMILES | Resistance Factor (RF80)
CON1CCC2(CC1)NC(=O)C(c1c(C)cc(Cl)cc1C)C2=O (stereo not shown) | 1
CCOC(=O)OC1=C(c2c(C)cc(Cl)cc2C)C(=O)NC12CCN(OC)CC2 | <1
CON1CCC2(CC1)C(=O)C(c1c(C)cc(C)cc1C)C(=O)N2OC1CCCO1 (stereo not shown) | <1
CCOC(=O)OC1=C(c2c(C)cc(C)cc2C)C(=O)NC12CCN(OC)CC2 | 4
CON1CCC2(CC1)NC(=O)C(c1c(C)cc(C)cc1C)C2=O (stereo not shown) | 4
CCOC(=O)OC1=C(c2c(C)cc(C)cc2C)C(=O)N(OCC)C12CCN(OC)CC2 [drawing 468] | 4
CCOC(=O)OC1=C(c2c(C)cc(C)cc2C)C(=O)N(C)C12CCN(OC)CC2 [drawing 471] | 1
CN1COCN(Cc2cnc(Cl)s2)/C1=N\[N+](=O)[O-] [thiamethoxam, reference compound] | >250

Same assay, conditions: neonicotinoid resistant FRC-P versus susceptible Myzus persicae; mortality 6 days after treatment

SMILES | Resistance factor (RF)
CN1COCN(Cc2cnc(Cl)s2)/C1=N\[N+](=O)[O-] [thiamethoxam, reference compound] | high
